Reference: US20260327211A1, “MODULATORS OF A POTASSIUM CHANNEL AND OF TRPV1 CHANNEL AND USES THEREOF” (Bsense Bio Therapeutics Ltd., priority 2023, published 2026)

Legend:
[1] = Human hepatocyte stability; format: in vitro ADME; conditions: human hepatocytes; for half-life: read-out: Hepatocytes (human) T1/2
[2] = tested on: Spared Nerve Injury (SNI) rats; experiment: Spared Nerve Injury (SNI) model, von Frey; format: in vivo, rat
Description: (§1) All animal experiments were carried out according to the Guide for the Care and Use of Laboratory Animals (2011 edition) and approved by the Israel National Institutional Animal Care and Use Committee (IACUC). Young adult male SD rats (Envigo RMS, Israel), were used for in vivo efficacy: Spared Nerve Injury (SNI), Distal Tibial Injury (DTI) and Post-operative Pain (POP), 200-220 grams, Chronic Post-Ischemia Pain (CPIP) 275-325 grams, Monosodium iodoacetate-induced osteoarthritis (MIA-OA) 180-220 grams; for in vivo safety: 200-250 grams at study initiation. […] The health status of the animals used in this study was examined upon their arrival. Only animals in good health were acclimatized to laboratory conditions and were used in the studies. All studies were performed following at least five days of animal acclimation. During acclimation and throughout the entire study duration, animals were housed within a limited-access rodent facility and kept in groups with a maximum of 2-3 rats per polypropylene cage. The cages were fitted with solid bottoms and filled with sterile wood shavings as bedding material. Animals were provided ad libitum with a commercial, sterile rodent diet and had free access to drinking water that was supplied to each cage via polyethylene bottles with stainless steel sipper tubes. A feed lot analysis of the diet batch used in the study was included in the archives with the study data. Water was monitored periodically. Plastic cylinders for playing and hiding and wooden balls or sticks were added to the cages for environmental enrichment.
SNI: The SNI procedure consisted of ligating and dissecting the tibial and common peroneal nerves, thus sparing the sural nerve. Prior to surgery, a dose of 0.03 mg/kg buprenorphine (Temgesic®) was administered to animals as a prophylaxis to alleviate the operative and postoperative pain unrelated to neuropathy. Next, animals were anesthetized with a combination of medetomidine/ketamine sodium IP. While under anesthesia a medio caudal incision of 4-5 mm parallel to the left femur was cut on shaved and disinfected skin. The sciatic nerve was exposed from underneath the muscle layer and isolated gently from the surrounding connective tissue, using curved and blunt forceps. The tibial and common peroneal nerves were first tightly ligated with double knot of 6-0 silk suture, proximally and immediately distal to the sciatic bifurcation. Thereafter, the nerves which run as a pair as physically attached to each other were cut at sites close to the ligatures, thereby removing a length of approximately 0.5 mm of the nerves, necessary to avoid the formation of any re-connection to the nerves. This procedure led to complete denervation of areas of tibial and peroneal innervation in the plantar paw, while neuropathy was developed upon the sural territories. Special care was taken not to manipulate the sural nerve, which thus was left intact. The muscle layers and skin were sutured, and animals were allowed to recover. 0.03 mg/kg buprenorphine SC was administered on postoperative days 1-2, every 12 hours, starting from the evening of Day 0. Rehydration with 4 ml of sterile saline IP was provided directly after the surgery, continuing twice a day for 7 days. The sural nerve innervates the lateral longitudinal third of the plantar paw and therefore, mechanical sensitivity was assessed in this area.
The selection of animals was performed on day 13 post-operation before animals were placed in their experimental groups. Animals with a pain threshold of <4 grams for an operated leg following Von Frey testing were included in the study. To form homogenous treatment groups, all the selected animals were grouped using a random sampling method on study day 13, to form groups with similar pain threshold mean. For blinding purposes, the researcher who dosed the animals with test items was different than the researcher who conducted the VF tests. […]

MIA-OA rats = experiment: Monosodium iodoacetate-induced osteoarthritis (MIA-OA) pain model; format: in vivo, rat
Description: as §1
Monosodium iodoacetate-induced osteoarthritis (MIA-OA): The animals were anaesthetized using an Isoflurane+O2 mixture. Then 50 μl of MIA at a concentration of 60 mg/mL was injected into the right knee joint using a 30 G needle. On study days 13 and 14 following MIA injection, the animals' dynamic weight bearing and response to von Frey filaments were measured.
Mechanical Allodynia (Von Frey): The rats were placed in an enclosure and positioned on a metal mesh surface but allowed to move freely. […]

opioid mu receptor = biological target: T1, opioid mu receptor (Homo sapiens, UniProt P35372); experiment: Functional selectivity panel, opioid mu receptor; format: biochemical
T1 construct: Eurofins DiscoverX, USA (assay provider)
T1 sequence (P35372 whole entry): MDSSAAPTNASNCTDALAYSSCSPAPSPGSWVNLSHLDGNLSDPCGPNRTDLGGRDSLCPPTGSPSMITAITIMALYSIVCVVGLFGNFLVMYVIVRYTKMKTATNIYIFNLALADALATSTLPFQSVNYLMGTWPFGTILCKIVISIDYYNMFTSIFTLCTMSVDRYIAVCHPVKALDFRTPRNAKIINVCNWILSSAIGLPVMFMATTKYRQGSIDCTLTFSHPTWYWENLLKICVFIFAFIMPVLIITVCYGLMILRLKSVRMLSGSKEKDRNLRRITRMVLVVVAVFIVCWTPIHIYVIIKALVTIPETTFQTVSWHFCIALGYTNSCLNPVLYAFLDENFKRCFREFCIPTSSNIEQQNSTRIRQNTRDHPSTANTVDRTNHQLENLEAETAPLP
Description: A broad panel of 78 recombinant targets was tested for pharmacologic activity in vitro through a variety of functional assays (Eurofins DiscoverX, USA), as part of the National Institute of Neurological Disorders and Stroke (NINDS) Preclinical Screening Platform for Pain (PSPP) program. The biological targets for the in vitro profiling have been selected based on avoiding opioid receptor stimulation and targets known to be associated with adverse events or targeted by drugs of abuse. […] For each test, a reference compound was evaluated at the target of interest as a positive control.

| SMILES | CLint scaled [1] | half-life [1] | PWT efficacy ([2]; 2 mg/kg PO) | Reversal of PWT ([2]; 20 mg/kg PO, 4 hour post-dose) | PWT efficacy ([2]; 20 mg/kg PO, up to 8 hour post-dose) | Reversal of mechanical PWT ([2]; 100 mg/kg oral, 6 hour post-dose) | Reversal of PWT (MIA-OA rats; 100 mg/kg, 6 hour post-dose) | IC50 (opioid mu receptor) | Pain relief in SNI ([2]; 3-30 mg/kg PO) | minimal effective dose ([2]; Rattus norvegicus, po) | Pain relief in osteoarthritic pain model (MIA-OA rats; 3-30 mg/kg PO, vs naproxen 30 mg/kg PO) | minimal effective dose (MIA-OA rats; Rattus norvegicus, po, read-out: Effective dose, osteoarthritic pain) | Effect on Opioid mu (opioid mu receptor; up to 10 micromolar) |
| --- | --- | --- | --- | --- | --- | --- | --- | --- | --- | --- | --- | --- | --- |
| O=C(Cc1cc(-n2cc(Cl)c3cc(Cl)cc(Cl)c32)ccc1F)NCCO [Compound 627] | 190 mL/min/kg | 20.3 min | – | – | – | – | – | – | – | – | – | – | – |
| O=C(Cc1cncc(-n2cc(Cl)c3cc(Cl)cc(Cl)c32)c1)N[C@@H]1COC[C@H]1O [Compound 661] | 73.8 mL/min/kg | 52.2 min | although not reaching statistical significance, showed an efficacious trend | 53% | remained statistically significant up to 8 hour post-dose | 47.2% | 33% | 6 µM | – | – | – | – | – |
| O=C(Cc1nccc(-n2cc(Cl)c3cc(Cl)cc(Cl)c32)n1)NC1COCC1O (stereo not drawn) [Compound 760] | – | – | – | – | – | – | – | – | pain relief comparable to Pregabalin's high and impairing dose | 3 to 30 mg/kg | superior in both effect and duration to high dose of naproxen | 3 to 30 mg/kg | no effect |
